According to patent publication US20250304550A1, “BROMODOMAIN AND EXTRA-TERMINAL (BET) SUBFAMILY BROMODOMAIN 1 (BD1) SELECTIVE INHIBITORS AND METHODS USING SAME” (Baylor College of Medicine, priority 2022, published 2025):

Experiments:
[1] = target: T1, BRDT-BD1 (Homo sapiens (Human), UniProt Q58F21); assay: AlphaScreen bromodomain proximity assay (biotinylated JQ1 competition); assay type: binding; conditions: for BRDT-BD1 vs. BRDT-BD2 fold: BD1 selectivity, AlphaScreen IC50 ratio
[2] = Metabolic stability assay in human liver microsomes; assay type: in vitro ADME; conditions: human, microsomes
[3] = test system: MV4; 11 and MOLM-13 cells; assay: Apoptosis detection (Annexin V) by flow cytometry; assay type: cell-based; conditions: 72 hours of treatment
[4] = test system: MYC and GAPDH expression in MV4; 11 and MOLM-13 cells; assay: Quantitative RT-PCR analysis of MYC and GAPDH expression; assay type: cell-based; conditions: 8 hours of treatment, both cell lines
[5] = target: BRD2-BD1 (Homo sapiens (Human), UniProt P25440); assay: BromoKdELECT assay; assay type: binding
Chain of BRD2-BD1 (P25440 74-180): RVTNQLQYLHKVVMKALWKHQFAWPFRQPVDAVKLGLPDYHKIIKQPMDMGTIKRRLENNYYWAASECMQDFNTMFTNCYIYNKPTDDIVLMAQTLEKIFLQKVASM

[6] = target: T1, BRDT-BD1; assay: BromoKdELECT assay; assay type: binding
[7] = target: BRD3-BD1 (Homo sapiens (Human), UniProt Q15059); assay: BromoKdELECT assay; assay type: binding
Chain of BRD3-BD1 (Q15059 34-140): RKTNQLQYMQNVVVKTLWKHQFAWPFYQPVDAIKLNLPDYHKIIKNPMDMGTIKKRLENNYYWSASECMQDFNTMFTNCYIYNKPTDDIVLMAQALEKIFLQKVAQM

[8] = test system: MV4; 11 and MOLM-13 cells; assay: Cell cycle analysis by flow cytometry; assay type: cell-based; conditions: 24 hours of treatment at the IC50
[9] = test system: NanoLuc-BET BD1; assay: NanoBRET target engagement intracellular BET bromodomain assay in HEK293 cells; assay type: cell-based, human; conditions: transiently transfected HEK293 cells
[10] = target: T2, BRD4-BD1 (Homo sapiens (Human), UniProt O60885); assay: BromoKdELECT assay; assay type: binding
[11] = target: NanoLuc-BRD4-BD2 (Homo sapiens (Human), UniProt O60885); assay: NanoBRET target engagement intracellular BET bromodomain assay in HEK293 cells; assay type: cell-based; conditions: transiently transfected HEK293 cells
[12] = target: NanoLuc-BRDT-BD2 (Homo sapiens (Human), UniProt Q58F21); assay: as above; assay type: cell-based; conditions: transiently transfected HEK293 cells
[13] = Metabolic stability assay in mouse liver microsomes; assay type: in vitro ADME; conditions: mouse, microsomes
[14] = test system: AML cell line MV4; 11; assay: Cell viability testing (CellTiterGlo, 72 hours); assay type: cell-based; conditions: Homo sapiens, '—' = not efficient
[15] = target: BRDT-BD2 (Homo sapiens (Human), UniProt Q58F21); assay: AlphaScreen bromodomain proximity assay (biotinylated JQ1 competition); assay type: binding; conditions: in Table 4 '—' = not efficient
[16] = target: BRD4-BD2 (Homo sapiens (Human), UniProt O60885); assay: as above; assay type: binding; conditions: in Table 4 '—' = not efficient
[17] = target: T2, BRD4-BD1; assay: as above; assay type: binding

CNC(=O)[C@@H](CC1CCN(C(=O)Cc2ccc3[nH]c(=O)cc(C)c3c2)CC1)NC(=O)c1ccc(-c2ccc(C)cc2C)cn1 [Compound 2, (R)-5-(2,4-dimethylphenyl)-N-(3-(1-(2-(4-methyl-2-oxo-1,2-dihydroquinolin-6-yl)acetyl)piperidin-4-yl)-1-(methylamino)-1-oxopropan-2-yl)picolinamide]
IC50 ([1]; AlphaScreen): 2.1 nM
fold more potent than (+)-JQ1 for BRDT-BD1 ([1]; AlphaScreen): 22 fold
BRDT-BD1 vs. BRDT-BD2 fold [1]: ~5000 fold
half-life at 2 μM [2]: 33 min
apoptosis, Annexin V+ cells (in words) [3]: induced
MYC expression (in words) [4]: suppressed
effects on GAPDH expression (in words) [4]: no/minimal effects
BRD2-BD1 selectivity over BRD2-BD2 ([5]; BromoKdELECT): 420 fold
IC50 ([5]; printed as BRD2-BDT1): 0.26 nM
IC50 [6]: 0.22 nM
IC50 [7]: 0.13 nM
BRD3-BD1 selectivity over BRD3-BD2 ([7]; BromoKdELECT): 5920 fold
effect on the cell cycle (in words) [8]: induced Gi arrest
inhibition of tracer binding, BD1 vs BD2 (in words) [9]: more potent and selective for NanoLuc-BET BD1
IC50 [10]: 0.29 nM
effect against BRD4-BD2 in NanoBRET (in words) [11]: no effect
effect against BRDT-BD2 in NanoBRET (in words) [12]: no effect
metabolic stability in mouse liver microsomes (in words) [13]: labile

CNC(=O)[C@@H](CC1CCN(C(=O)Cc2ccc3[nH]c(=O)ccc3c2)CC1)NC(=O)c1ccc(-c2ccccc2)cn1 [Compound 10, (R)-N-(1-(methylamino)-1-oxo-3-(1-(2-(2-oxo-1,2-dihydroquinolin-6-yl)acetyl)piperidin-4-yl)propan-2-yl)-5-phenylpicolinamide]
IC50 ([1]; AlphaScreen): 5.4 nM
BRDT-BD1 vs. BRDT-BD2 fold [1]: 3,875 fold
EC50 [14]: 143 nM
IC50 [15]: 20900 nM
IC50 [16]: 16700 nM
IC50 ([17]; AlphaScreen): 7.1 nM
fold loss of selectivity over BRD4-BD2 ([17]; AlphaScreen): 1.6 fold
BRD4-BD1 vs. BRD4-BD2 fold ([17]; BD1 selectivity, AlphaScreen IC50 ratio): 2,352 fold
